Ends that are not written are not given here.

This passage reports body weight gain, body weight reduction and Adiponectin expression increase results from patent US9518976B2, “Methods for identifying or assaying for agents that increase beta-cell proliferation, insulin secretion, insulin sensitivity, glucose tolerance and decrease fat mass” (The Trustees of Columbia University in The City of New York, priority 2006, dated 2016).

Assay [1] has as its system GTG-induced obesity in wt mice. The assay is described as follows: Osteocalcin subcutaneous infusion in gold thioglucose (GTG)-injected wt mice: body weight gain. Format: in vivo, mouse. As to conditions: GTG-injected wild type mice; for body weight gain: 1 ng/hr s.c. osmotic pump for 28 days, from 7 days on, vs PBS. As to the method: FIG. 14. […] Wt mice were injected with gold thioglucose (GTG) or vehicle to induce hyperphagia and obesity. Two weeks later they were implanted with subcutaneous osmotic pumps infusing […] of recombinant osteocalcin or PBS for 28 days before. Body weight gain was recorded thereafter at indicated days.
The effect of uncarboxylated osteocalcin on GTG-induced obesity was investigated (FIG. 14). Wild type mice were injected with gold thioglucose (GTG) to induce hyperphagia and obesity or vehicle. Two weeks later they were implanted with subcutaneous osmotic pumps infusing 1 ng/hr of recombinant uncarboxylated osteocalcin or PBS for 28 days. […] At 28 days, body weight was reduced by about 15% with uncarboxylated osteocalcin treatment.

In assay [2] the test system is Wild type adipocytes. The assay is described as follows: Adiponectin expression in wt adipocytes treated with osteocalcin (real time PCR). Type of assay: cell-based, mouse. The following applies: wild type adipocytes treated for 4 hours; real time PCR; vs vehicle. The text has this:
FIG. 7. Esp−/− Mice Are a Model of Increased Osteocalcin Bioactivity. (A-G) Comparison between 6-week-old WT, Esp−/, Ocn+/−, and Esp−/−; Ocn+/− mice. (A) Blood glucose levels. (B) Serum insulin levels. (C) Serum adiponectin levels. (D) GTT. (E) ITT. (F) GSIS test. (G) Quantification of the number of Ki67-immunoreactive cells in pancreatic islets. […] (J) Expression of Adiponectin in WT adipocytes cocultured with osteoblasts treated with warfarin or vehicle. (K) Expression of Adiponectin in WT adipocytes cultured in presence of vehicle or of 1 ng/ml of commercially available carboxylated osteocalcin (Immunotopics) or bacterially produced uncarboxylated osteocalcin. (L) Expression of Insulin and Cyclin D1 in WT islets cultured in presence of 0.3 ng/ml of bacterially produced uncarboxylated osteocalcin or vehicle. (M) Metabolic parameters and total serum osteocalcin levels in control and obese patients. (N-O) Quantification of carboxylated osteocalcin (HA-bound osteocalcin) in control and obese patients. In (A)-(C) and (G)-(L): *p<0.05 versus WT (Student's t test); in (D)-(F), °p<0.05 versus WT and *p % 0.001 versus WT (ANOVA followed by post hoc analysis).
FIG. 15. […] Wt adipocytes were treated for 4 hours with recombinant full-length osteocalcin (1-46) or a truncated form (1-36) or vehicle. Adiponectin expression was then quantified by real time PCR.
Primary adipocytes were isolated from epididymal fat pads by collagenase digestion. Briefly, minced adipose tissue was digested by 1 mg/ml collagenase P in KRP Buffer (20 mM HEPES, 120 mM NaCl, 6 mM KCl, 1.2 mM MgSO4, 1 mM CaCl2, 0.6 mM Na2HPO4, 0.4 mM NaH2PO4, 2.5 mM D-glucose, 2% BSA, pH 7.4) for 1 h at 37° C. The isolated cells were washed twice with KRP Buffer before being cultured in αMEM/1% FBS at 37° C. in 5% CO2.
All gene expression analyses were performed using real time PCR. DNAse I-treated total RNA was converted to cDNA with the SuperScript III kit (Invitrogen). Real-time PCR were performed using the Taq SYBR Green Supermix with ROX (Biorad) on an MX3000 instrument (Stratagene); beta-actin amplification was used as an internal reference for each sample. All primers were from SuperArray.
Experiments were performed to test whether truncated osteocalcin was as effective as full-length uncarboxylated osteocalcin in stimulating adiponectin secretion from mouse adipocytes in vitro. Wild type adipocytes were treated for 4 hours with recombinant full-length osteocalcin (1-46) or a truncated form (1-36) (having a deletion of the […] ten amino acids from the C-terminal end) or vehicle. Adiponectin expression was then quantified by real time PCR. […]
(In general: Real-time PCR tracks product formation cycle by cycle.)

“uncarboxylated osteocalcin: Recombinant mouse osteocalcin bacterially produced, cleaved from GST with thrombin; completely undercarboxylated at all three sites (YLGASVPSPDPLEPTREQCELNPACDELSDQYGLKTAYKRIYGITI; not fully specified; ends and bridges not checked; UniProt P86546 50-95, looked up)”: the values for the body weight gain entry in assay [1] and in assay [1] (listed as recombinant osteocalcin) were “significantly reduced” and “prevents GTG-induced obesity”, respectively. The body weight reduction entry in assay [1] (1 ng/hr s.c., at 28 days) is on record as “about 15%”. The Adiponectin expression increase in assay [2] was roughly 1.5 fold.
